Measurements taken from US20250000991A1, “NECTIN-4 ANTIBODIES AND ANTIBODY-DRUG CONJUGATES” (Eli Lilly and Company, priority 2023, published 2025).
Square brackets hold non-standard residues; d marks the D form. Peptide text beside a SMILES is read from it. * marks the point of attachment. Dolaproine = CO[C@@H]([C@@H]1CCCN1)[C@@H](C)C(=O)O; Dil = CC[C@H](C)[C@H](NC)[C@@H](CC(=O)O)OC; X1 = C[C@@H](N*)[C@@H](O)c1ccccc1; NMeV = CN[C@H](C(=O)O)C(C)C

Assays:
[1] = tested on: UMUC3-Luc-GFP Nectin-4 negative cells; test: Free payload cytotoxicity on UMUC3-Luc-GFP cells; assay type: cell-based; details: 5 days
Method: (§1) UMUC3 cell line was engineered to express human Nectin4 and two clonal populations with different levels of expression were selected. In flat white clear-bottom 96-well plates, UMUC3-hNectin4 clone F7/UMUC3-Luc-GFP cells were mixed and seeded at a total of 1500 cells/well/100 ul with a ratio of 4:1 in assay medium (MEM+1× GlutaMax+10% Heat Inactivated Fetal Bovine Serum+1 mM sodium pyruvate). UMUC3-hNectin4 clone E3/UMUC3-Luc-GFP cells were mixed and seeded at a total of 2100 cells/well/100 ul with a ratio of 6:1 in assay medium. UMUC3-Luc-GFP cells were negative for nectin-4 expression. Plates were incubated at 37° C. with 5% CO2 overnight. Next day, ADCs were added at final working concentration from 100 nM, 1:3 serially diluted in assay medium. To assess sensitivity of cell line to free payload, free payloads were added at final working concentration from 200 nM, 1:3 serially diluted in assay medium. […] Plates were read after 5-days treatment using ONE-Glo™ Luciferase Assay System. […] Luminescence was read in the SpectraMax M5e. […] Percentage of UMUC3-Luc-GFP killing was calculated against no treatment as 0%. Data was graphed and analyzed using Graphpad Prism version 9.5.1. IC50 was determined via log(inhibitor) vs. response (three parameters) curve fitting for bystander activity and log(inhibitor) vs. response (four parameters) for free payload cytotoxicity.

[2] = tested on: HEKα cells (normal human epidermal keratinocytes); test: Binding to normal human epidermal keratinocytes by flow cytometry; details: ADC (Formula XI, DAR of 8); read-out: EC50 of cell surface binding to normal human epidermal keratinocytes
Method: To characterize binding of nectin-4 antibodies and ADCs of the present disclosure to normal human epidermal keratinocytes, HEKα cells were plated in 150×25 mm tissue culture dish (Corning Inc.) in complete culture medium (Dermal Cell Basal Medium+Keratinocytes Growth Kit, ATCC) at 1 million per well to achieve confluency within 24 hours. The differentiation process progressed for an additional 5-10 days. Following the induction of differentiation, cells were dissociated with 2 mg/mL Type XI Collagenase from Clostridium histolyticum (Sigma-Aldrich) at 37° C. Cells were counted and aliquoted to a V-bottom polypropylene 96-well plate (Thermo Scientific Nunc) at 10^5 cells/well. Antibodies and ADCs were added to cells starting at 300 nM, 1:4 serially diluted in assay buffer (1×DPBS containing 2% FBS, Gibco). Cells were incubated on a microplate shaker at 4° C., protected from light for 1 hour. After incubation, cells were washed twice with 200 uL/well of assay buffer and stained with Alexa Fluor 647-conjugated AffiniPure F(ab')2 Fragment Goat Anti-Human IgG (H+L) (Jackson ImmunoResearch) at 1:1,000 dilution. Following an hour incubation at 4° C., cells were washed twice with 200 uL/well of assay buffer and stained with Zombie Green fixable viability dye (BioLegend) at 1:2,000 dilution. Cells were incubated on a microplate shaker at 4° C. for 20 minutes. […]

[3] = tested on: T24-human Nectin-4-eGFP clone 3 cells; test: Internalization: degradation of nectin-4-eGFP signal by fluorescence imaging; assay type: cell-based; details: ADC (Formula XI, DAR of 8), 24 h time course
Method: T24 cell line was engineered to express human Nectin-4-eGFP and clonally selected for high expression. […] human Nectin-4-eGFP clone 3 cells were plated at 12,000 cells per well, in black clear-bottom CellCarrier Ultra 384-well microplates (Perkin Elmer) in complete culture medium (McCoy's 5A, modified, +10% FBS+Glutamax+400 μg/mL G418+Pen/Strep). Plates were covered with AeraSeal™ Sealing Films and incubated overnight at 37° C., 5% CO2. Next day, antibodies and ADCs were added to cells, starting at 300 nM at 1:3 dilution. Plates were covered with AeraSeal™ and placed in incubator for imaging on PerkinElmer Opera Phenix Screening System over a 24 h time course. Data were processed and analyzed in Harmony and Microsoft Excel and graphed in GraphPad Prism.

[4] = tested on: T24-human nectin-4 clone 108; test: ADC cytotoxicity (CellTiter-Glo), high nectin-4 expression line; assay type: cell-based; details: T24 Nectin-4 clone 108, 5 days, ADC Formula XI DAR 8
Method: Plates were read after 5 days treatment using CellTiter-Glo Luminescent Cell Viability Assay. 100 ul/well CellTiter-Glo reagent were incubated in plates at room temperature for 10 min. Luminescence was read in the SpectraMax M5e. RLUs (Relative Light Units) were obtained with SoftMax Pro 5.4. Percentage of cell killing was calculated against no treatment as 0%. Data was graphed and analyzed using GraphPad Prism version 9.5.1. IC50 was determined via log(inhibitor) vs. response-variable slope (four parameters) curve fitting.
T24 cell line was engineered to express human nectin-4 and clonally selected. T24-human nectin-4 clone 108, a high expression clonal cell line, was seeded in culture medium (McCoy's 5A+1× GlutaMax+10% Heat Inactivated Fetal Bovine Serum+400 μg/ml G418). ADCs were added at final working concentration from 200 nM, 1:4 serially diluted in culture medium for 5 days.

[5] = tested on: NCI-H1781 cells; test: ADC cytotoxicity (CellTiter-Glo), low nectin-4 expression line; assay type: cell-based; details: NCI H1781, 5 days, ADC Formula XI DAR 8
Method: NCI-H1781 cells, a low expression cell line, were seeded in white clear-bottom 96-well tissue culture plates in culture medium (RPMI 1640+1× GlutaMax+10% Heat Inactivated Fetal Bovine Serum+1 mM sodium pyruvate). Cells were incubated at 37° C. with 5% CO2 overnight. Next day, ADCs were added at final working concentration from 100 nM, 1:3 serially diluted in culture medium. Plates were covered with Breathe-Easy® sealing membrane and incubated at 37° C. with 5% CO2. Plates were read after 5 days treatment using CellTiter-Glo Luminescent Cell Viability Assay. 100 ul/well CellTiter-Glo reagent were incubated in plates at room temperature for 10 min. Luminescence was read in the SpectraMax M5e. RLUs (Relative Light Units) were obtained with SoftMax Pro 5.4. Percentage of cell killing was calculated against no treatment as 0%. Data was graphed and analyzed using GraphPad Prism version 9.5.1. IC50 was determined via log(inhibitor) vs. response-variable slope (four parameters) curve fitting.

[6] = tested on: T24 mScarlet clone 5 Nectin-4 negative cells; test: Bystander killing of T24-mScarlet clone 5 cells co-cultured with T24-human nectin4 clone108 (imaging); assay type: cell-based; details: T24-mScarlet clone5 : T24-human nectin4 clone108 9:1, 5 days, ADC Formula XI DAR 8; read-out: IC50 of bystander effect
Method: T24 cell line was engineered to express mScarlet and clonally selected to test in bystander assay. T24-mScarlet clone5 and T24-human nectin4 clone108 were mixed and seeded at a total of 1000 cells/well/100 ul with a ratio of 9:1 in culture medium (McCoy's 5A+1× GlutaMax+10% Heat Inactivated Fetal Bovine Serum+400 μg/ml G418) in flat clear bottom 96-well plates. T24 mScarlet clone 5 cells were negative for nectin-4 expression. Plates were incubated at 37° C. with 5% CO2 overnight. Next day, ADCs were added at final working concentration from 50 nM, 1:4 serially diluted in culture medium. Plates were covered with Breathe-Easy® sealing membrane, placed in BioSpa and scanned in Cytation5 every day for 5 days.
Images of T24-mScarlet cells were captured and analyzed by Cytation5 with Gen5 Image Prime 3.11. Percentage of T24-mScarlet cell killing was calculated by decreased Integrated Intensity (area×mean intensity), normalized to zero hour and no treatment. Data was graphed and analyzed using GraphPad Prism version 9.5.1. IC50 was determined via log(inhibitor) vs. response-variable slope (four parameters) curve fitting.

[7] = tested on: T24-human nectin4 clone147 cells; test: In vitro CDC assay with human serum complement; assay type: cell-based; details: nectin-4 expressing T24 cell line
Method: T24 cell line was engineered to express high level of human Nectin4 and clonally selected. T24-human nectin4 clone147 cells were added in white clear-bottom 96-well tissue culture plates in assay medium (McCoy's 5A+1× GlutaMax+10% Heat Inactivated Fetal Bovine Serum) and incubated in the incubator at 37° C. with 5% CO2 overnight. Next day, 50 ul/well antibodies were added at final working concentration from 200 nM, 1:3 serially diluted in assay medium and incubated at 37° C. with 5% CO2 for one hour. Diluted human serum complement (1:3) was then added at 50 ul/well in assay medium and incubated at 37° C. with 5% CO2 for 3 hours. Plate was read using CellTiter-Glo Luminescent Cell Viability Assay. 100 ul/well CellTiter-Glo reagent were incubated in plates at room temperature for 10 min. Luminescence was read in the SpectraMax M5e. RLUs (Relative Light Units) were obtained with SoftMax Pro 5.4. Percentage of cell killing was calculated against no treatment. Data was graphed and analyzed using GraphPad Prism version 9.5.1.

[8] = tested on: UM-UC-3 Nectin4 clone F7 xenograft; test: Tumor xenograft, high nectin-4 expression; assay type: in vivo, mice (nu/nu); details: UMUC3 Nectin-4 clone F7 xenograft, single dose 2 mg/kg, day 40
Method: In order to test the efficacy of the nectin-4 ADCs of the present disclosure, which have effector null mutations in the Fc region, and to compare to the enfortumab antibody, which has wildtype Fc and in an ADC with the same payload background as the ones of this disclosure, two tumor xenograft models with either high or moderate nectin-4 expression were tested as described. Immune compromised female mice (nu/nu) between 5-8 weeks of age with weight 18-20 grams were implanted unilaterally on the right flank with UM-UC-3 Nectin4 clone F7 cells with high nectin-4 expression. […] The test articles were given at a single dose (2 mg/kg) formulated with 5% dextrose. Tumors were measured biweekly until Day 40.

[9] = tested on: MDA-MB-468 xenograft; test: Tumor xenograft, moderate nectin-4 expression; assay type: in vivo, NSG mice; details: MDAMB468 xenograft, single dose 2 mg/kg, day 71
Method: In a separate study, female NSG mice between 5-6 weeks of age were injected subcutaneously with MDA-MB-468 cells with moderate Nectin-4 expression. When tumors reached approximately 150-250 mm^3; animals were matched by tumor volume into treatment or control groups and dosing initiated (Day 0, n=8 per group). The test articles were given at a single dose (2 mg/kg) formulated with 5% Dextrose. Tumors were measured biweekly until Day 71.
In both models, a 2 mg/kg single dose treatment of either the nectin-4 ADCs (exemplified herein with each of Abs1-8 conjugated as in Formula XI, and with a DAR of 8) or benchmark enfortumab ADC (enfortumab conjugated with Formula XI, and with a DAR of 8) was used. Tumor growth was measured at day 40 for UMUC3 Nectin-4 clone F7 and day 71 for MDAMB468 xenografts.

[10] = tested on: T24-hNectin-4 clone 14 cells (MMAE-resistant); test: ADC cytotoxicity in MMAE-resistant cells (CellTiter-Glo); assay type: cell-based, human; details: T24-hNectin-4 clone 14, 5 days
Method: In T24 nectin-4 cells that are resistant to MMAE, two nectin-4 ADCs described herein and enfortumab vedotin were tested for activity. T24-hNectin-4 clone 14 cells were seeded at 500 per well in 100 ul culture medium, in white clear-bottom 96-well tissue culture plates and incubated at 37° C. with 5% CO2 overnight. The next day each ADC was serially diluted 1:4, with a starting concentration of 400 nM, in culture medium. One-hundred ul of each ADC dilution was added per well and the plates were covered with a Breathe-Easy® sealing membrane and incubated at 37° C. with 5% CO2. After 5 days of treatment, the plates were removed from the incubator, placed at room temperature for 15 minutes, and 100 ul medium per well was removed. One hundred ul of CellTiter-Glo reagent was added per well and the plates were incubated at room temperature for 10 minutes. RLUs (Relative Light Units) were obtained by SpectraMax M5e with SoftMax Pro 5.4. Percentage of cell killing was calculated against DMSO only (for free payloads) or no treatment (for ADCs) as 0%. Data was graphed and analyzed using Graphpad Prism version 9.5.1. IC50s were determined via log(inhibitor) vs. response-variable slope (four parameters) curve fitting.

[11] = tested on: UMUC3-Luc-GFP + UMUC3-hNectin4 clone F7; test: Bystander killing of UMUC3-Luc-GFP cells co-cultured with UMUC3-hNectin4 clone F7 (ONE-Glo); assay type: cell-based, human
Method: as §1, with “overnight.” for “overnight. Next day, ADCs were added at final working concentration from 100 nM, 1:3 serially diluted in assay medium. To assess sensitivity of cell line to free payload, free payloads were added at final working concentration from 200 nM, 1:3 serially diluted in assay medium.”, “ONE-GloTM” for “ONE-Glo™”, “cytotoxicity. […] In experiments run as essentially described herein, the bystander effects of four nectin-4 ADCs described herein and enfortumab vedotin were evaluated using the UMUC3-hNectin-4 cloneF7/UMUC3-Luciferase-GFP cell pair. […]” for “cytotoxicity.”

[12] = tested on: UMUC3-Luc-GFP + UMUC3-hNectin4 clone E3; test: Bystander killing of UMUC3-Luc-GFP cells co-cultured with UMUC3-hNectin4 clone E3 (ONE-Glo); assay type: cell-based, human; details: UMUC3-Luc-GFP + UMUC3-hNectin4 clone E3, ratio 6:1, 5 days; read-out: IC50 of bystander effect
Method: as §1

Compound: CC[C@H](C)[C@@H]([C@@H](CC(=O)N1CCC[C@H]1[C@H](OC)[C@@H](C)C(=O)N[C@H](C)[C@@H](O)c1ccccc1)OC)N(C)C(=O)[C@@H](NC(=O)[C@@H](NC)C(C)C)C(C)C [MMAE] (H-[NMeV]V[Dil][Dolaproine]-X1)
- IC50 [1]: 0.38 nM

Compound: Enfortumab
- EC50 [2]: 0.03 nM
- % activity (max GFP signal loss compared to enfortumab mAb (100%)) [3]: 119.9%
- EC50 ([3]; read-out: EC50 of nectin-4-eGFP signal loss): 2.55 nM
- IC50 [4]: 0.0747 nM
- IC50 [5]: 0.0409 nM
- IC50 [6]: 0.0593 nM
- CDC potential [7]: did not show CDC potential

Compound: Enfortumab ADC: benchmark: enfortumab conjugated with Formula XI, and with a DAR of 8 [reference compound]
- Mean tumor volume [8]: 812.22 mm^3
- Mean tumor volume [9]: 272.28 mm^3

Compound: Enfortumab vedotin [reference compound]
- Activity against MMAE-resistant cells [10]: lost efficacy
- IC50 ([11]; UMUC3-Luc-GFP + UMUC3-hNectin4 clone F7, ratio 4:1, 5 days, read-out: IC50 of bystander effect): 4.3 nM
- Bystander effect (in words) ([11]; UMUC3-hNectin-4 cloneF7/UMUC3-Luciferase-GFP 4:1, 5 days): much less potent bystander effect
- IC50 [12]: 0.35 nM
